Measurements reported in patent publication US11802120B2, “Fused cyclic urea derivatives as CRHR2 antagonist” (RaQualia Pharma Inc., priority 2018, dated 2023).

Molecular target: T1, human CRHR2-alpha (Homo sapiens, UniProt Q13324)
T1 sequence (Q13324 1-411): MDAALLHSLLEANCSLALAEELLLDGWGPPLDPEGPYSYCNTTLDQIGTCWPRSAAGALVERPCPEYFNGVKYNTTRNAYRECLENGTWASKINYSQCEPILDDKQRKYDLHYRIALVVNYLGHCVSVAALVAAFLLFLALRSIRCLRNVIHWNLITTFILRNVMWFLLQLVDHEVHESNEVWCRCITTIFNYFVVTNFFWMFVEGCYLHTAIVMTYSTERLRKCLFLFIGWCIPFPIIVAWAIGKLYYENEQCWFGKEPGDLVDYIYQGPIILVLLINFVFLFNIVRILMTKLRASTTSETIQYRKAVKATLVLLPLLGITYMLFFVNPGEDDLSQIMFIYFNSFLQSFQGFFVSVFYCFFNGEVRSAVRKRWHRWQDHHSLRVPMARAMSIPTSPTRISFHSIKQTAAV
Test: cAMP functional assay for human CRHR2 (LANCE Ultra cAMP, TR-FRET)
Type: cell-based
Details: CHO-K1 cells expressing human CRHR2-alpha, agonist human urocortin2 at EC80, cAMP; read-out: IC50 against CRHR2
Outline: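 CHO-K1 cells stably expressing each receptor, serum-starved and cryopreserved, were preincubated with compound 30 min at 25° C in HBSS buffer with 0.5 mM IBMX, pH 7.4, then stimulated 30 min with EC80 agonist (urocortin2 for CRHR2, CRF for CRHR1). cAMP read by TR-FRET; IC50 from percent-inhibition curves.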

IC50, < 300 nM:
O=C(N[C@H]1CC[C@H](Cn2c(=O)n(-c3ccc(-n4nccn4)nc3)c3ccccc32)CC1)c1cc(Cl)cnc1C(F)F [Example 685, N-((1r,4r)-4-((3-(6-(2H-1,2,3-triazol-2-yl)pyridin-3-yl)-2-oxo-2,3-dihydro-1H-benzo[d]imidazol-1-yl)methyl)cyclohexyl)-5-chloro-2-(difluoromethyl) nicotinamide]
Cc1cc(N2CCCC2=O)ncc1-n1c(=O)n(C[C@H]2CC[C@H](NC(=O)c3cc(Cl)cnc3C(F)F)CC2)c2ccccc21 [Example 561, 5-chloro-2-(difluoromethyl)-N-((1r,4r)-4-((3-(4-methyl-6-(2-oxopyrrolidin-1-yl)pyridin-3-yl)-2-oxo-2,3-dihydro-1H-benzo[d]imidazol-1-yl)methyl)cyclohexyl) nicotinamide]
CNC(=O)c1ccc(-n2c(=O)n(C[C@H]3CC[C@H](NC(=O)c4cc(C(F)(F)F)ccc4C)CC3)c3ccccc32)cn1 [Example 532, N-methyl-5-(3-(((1r,4r)-4-(2-methyl-5-(trifluoromethyl)benzamido)cyclohexyl)methyl)-2-oxo-2,3-dihydro-1H-benzo[d]imidazol-1-yl) picolinamide]
Cc1ncc(Cl)cc1C(=O)N[C@H]1CC[C@H](Cn2c(=O)n(-c3ccc4c(c3)c(C)nn4CCO)c3ccccc32)CC1 [Example 230, 5-chloro-N-((1r,4r)-4-((3-(1-(2-hydroxyethyl)-3-methyl-1H-indazol-5-yl)-2-oxo-2,3-dihydro-1H-benzo[d]imidazol-1-yl)methyl)cyclohexyl)-2-methylnicotinamide]
C[C@H](O)COc1ccc(-n2c(=O)n(C[C@H]3CC[C@H](NC(=O)c4cc(Cl)cnc4C(F)(F)F)CC3)c3ccccc32)cn1 [Example 467, 5-chloro-N-((1S,4r)-4-((3-(6-((S)-2-hydroxypropoxy)pyridin-3-yl)-2-oxo-2,3-dihydro-1H-benzo[d]imidazol-1-yl)methyl)cyclohexyl)-2-(trifluoromethyl)nicotinamide]
CNC(=O)c1ccc(-n2c(=O)n(C[C@H]3CC[C@H](NC(=O)c4cc(Cl)cnc4C)CC3)c3ccc(OC)cc32)cn1 [Example 258, 5-(3-(((1r,4r)-4-(5-chloro-2-methylnicotinamido)cyclo-hexyl)methyl)-6-methoxy-2-oxo-2,3-dihydro-1H-benzo [d]imidazol-1-yl)-N-methylpicolinamide]
Cc1ncc(Cl)cc1C(=O)N[C@H]1CC[C@H](Cn2c(=O)n(-c3ccc(N4CCCC4=O)nc3)c3ccccc32)CC1 [Example 111, 5-chloro-2-methyl-N-((1r,4r)-4-((2-oxo-3-(6-(2-oxopyrrolidin-1-yl)pyridin-3-yl)-2,3-dihydro-1H-benzo[d]imidazol-1-yl)methyl)cyclohexyl)nicotinamide]
O=C(N[C@H]1CC[C@H](Cn2c(=O)n(-c3cccc4cccnc34)c3ccccc32)CC1)c1cc(Cl)cnc1C(F)F [Example 419, 5-chloro-2-(difluoromethyl)-N-((1r,4r)-4-((2-oxo-3-(quinolin-8-yl)-2,3-dihydro-1H-benzo [d]imidazol-1-yl)methyl)cyclo-hexyl)nicotinamide]
CNC(=O)c1cc2cc(-n3c(=O)n(C[C@H]4CC[C@H](NC(=O)c5cc(Cl)cnc5C)CC4)c4ccccc43)ccc2n1C [Example 404, 5-(3-(((1r,4r)-4-(5-chloro-2-methylnicotinamido)cyclo-hexyl)methyl)-2-oxo-2,3-dihydro-1H-benzo[d]imidazol-1-yl)-N,1-dimethyl-1H-indole-2-carboxamide]
CC(=O)Nc1ccc(-n2c(=O)n(C[C@H]3CC[C@H](NC(=O)c4cc(Cl)cnc4C(F)F)CC3)c3ccccc32)cn1 [Example 508, N-((1r,4r)-4-((3-(6-aceta-midopyridin-3-yl)-2-oxo-2,3-dihydro-1H-benzo[d]imidazol-1-yl)methyl)cyclo-hexyl)-5-chloro-2-(difluoro-methyl)nicotinamide]
O=C(N[C@H]1CC[C@H](Cn2c(=O)n(-c3cnc4[nH]c(CO)cc4c3)c3ccccc32)CC1)c1cc(Cl)cnc1C(F)F [Example 709, 5-chloro-2-(difluoromethyl)-N-((1r,4r)-4-((3-(2-(hydroxymethyl)-1H-pyrrolo[2,3-b]pyridin-5-yl)-2-oxo-2,3-dihydro-1H-benzo[d]imidazol-1-yl)methyl)cyclohexyl)nicotinamide]
COc1ccc(-n2c(=O)n(C[C@H]3CC[C@H](NC(=O)c4cc(Cl)cnc4C(F)F)CC3)c3ncccc32)cc1F [Example 722, 5-chloro-2-(difluoromethyl)-N-((1r,4r)-4-((1-(3-fluoro-4-methoxyphenyl)-2-oxo-1H-imidazo[4,5-b]pyridin-3(2H)-yl)methyl)cyclohexyl) nicotinamide]
Cn1cc(CCn2c(=O)n(C[C@H]3CC[C@H](NC(=O)c4cc(Cl)cnc4C(F)(F)F)CC3)c3ccccc32)cn1 [Example 303, 5-chloro-N-((1r,4r)-4-((3-(2-(1-methyl-1H-pyrazol-4-yl)ethyl)-2-oxo-2,3-dihydro-1H-benzo[d]imidazol-1-yl)methyl)cyclohexyl)-2-(trifluoromethyl)nicotinamide]
O=C(N[C@H]1CC[C@H](Cn2c(=O)n(-c3ccc(NC4COC4)nc3)c3ccccc32)CC1)c1cc(Cl)cnc1C(F)F [Example 481, 5-chloro-2-(difluoromethyl)-N-((1r,4r)-4-((3-(6-(oxetan-3-ylamino)pyridin-3-yl)-2-oxo-2,3-dihydro-1H-benzo [d]imidazol-1-yl)methyl)cyclohexyl)nicotinamide]
O=C(N[C@H]1CC[C@H](Cn2c(=O)n(-c3ccc(N4CCNC4=O)nc3)c3ccccc32)CC1)c1cc(Cl)cnc1C(F)F [Example 523, 5-chloro-2-(difluoromethyl)-N-((1r,4r)-4-((2-oxo-3-(6-(2-oxoimidazolidin-1-yl)pyridin-3-yl)-2,3-dihydro-1H-benzo[d]imidazol-1-yl)methyl)cyclohexyl)nicotinamide]
O=C(Cn1c(=O)n(C[C@H]2CC[C@H](NC(=O)c3cc(Cl)ccc3Cl)CC2)c2ccccc21)c1ccccc1 [Example 287, 2,5-dichloro-N-((1r,4r)-4-((2-oxo-3-(2-oxo-2-phenylethyl)-2,3-dihydro-1H-benzo[d]imidazol-1-yl)methyl)cyclo-hexyl)benzamide]
Cc1ncc(Cl)cc1C(=O)N[C@H]1CC[C@H](Cn2c(=O)n(-c3ccncc3C#N)c3ccccc32)CC1 [Example 249, 5-chloro-N-((1r,4r)-4-((3-(3-cyanopyridin-4-yl)-2-oxo-2,3-dihydro-1H-benzo[d]imidazol-1-yl)methyl)cyclohexyl)-2-methylnicotinamide]
CN(C)c1ccc(-n2c(=O)n(C[C@H]3CC[C@H](NC(=O)c4cc(Cl)cnc4C(F)(F)F)CC3)c3ccccc32)cn1 [Example 333, 5-chloro-N-((1r,4r)-4-((3-(6-(dimethylamino)pyridin-3-yl)-2-oxo-2,3-dihydro-1H-benzo [d]imidazol-1-yl)methyl)cyclohexyl)-2-(trifluoromethyl) nicotinamide]
